This note sets out measurements from patent publication US9040663B2, “Melanocortin receptor-specific peptides” (AstraZeneca AB, priority 2009, dated 2015).

For test [1], the target named is T1, hMC4-R (Homo sapiens (Human), UniProt P32245). The experiment in a line: Competitive inhibition binding assay using [I125]-NDP-α-MSH, hMC4-R. Particulars: membranes of HEK-293 cells expressing recombinant hMC4-R, read-out: MC4-R Ki. Here is the method: 7.1 Competitive Inhibition Assay using [I^125]-NDP-α-MSH.
T1 sequence (P32245 whole entry): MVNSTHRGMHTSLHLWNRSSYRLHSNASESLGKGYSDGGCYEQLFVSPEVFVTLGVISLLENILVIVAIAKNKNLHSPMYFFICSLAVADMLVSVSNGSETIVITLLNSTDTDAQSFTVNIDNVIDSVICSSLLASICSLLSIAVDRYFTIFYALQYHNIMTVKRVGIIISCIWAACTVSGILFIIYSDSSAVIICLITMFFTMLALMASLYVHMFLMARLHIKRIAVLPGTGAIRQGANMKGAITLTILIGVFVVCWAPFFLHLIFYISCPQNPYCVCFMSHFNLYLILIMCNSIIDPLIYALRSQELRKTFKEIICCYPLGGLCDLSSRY
A competitive inhibition binding assay was performed for exemplified peptides according to the invention using membrane homogenates prepared from HEK-293 cells that express recombinant hMC4-R, hMC3-R, or hMC5-R, and from B-16 mouse melanoma cells (containing endogenous MC1-R). In some instances, HEK-293 cells that express recombinant hMC1-R were employed. Assays were performed in 96 well GF/B Millipore multiscreen filtration plates (MAFB NOB10) pre-coated with 0.5% bovine serum albumin (Fraction V). Membrane homogenates were incubated with 0.2 nM (for hMC4-R) 0.4 nM (for MC3-R and MC5-R) or 0.1 nM (for mouse B16 MC1-R or hMC1-R) [I^125]-NDP-α-MSH (Perkin Elmer) and increasing concentrations of test peptides of the present invention in buffer containing 25 mM HEPES buffer (pH 7.5) with 100 mM NaCl, 2 mM CaCl2, 2 mM MgCl2, 0.3 mM 1,10-phenanthroline, and 0.2% bovine serum albumin. After incubation for 60 minutes at 37° C., the assay mixture was filtered and the membranes washed three times with ice-cold buffer. Filters were dried and counted in a gamma counter for bound radioactivity. […] Maximal specific binding (100%) was defined as the difference in radioactivity (cpm) bound to cell membranes in the absence and presence of 1 μM NDP-α-MSH. […] Each assay was conducted in triplicate and the actual mean values are described, with results less than 0% reported as 0%. Ki values for test peptides of the present invention were determined using Graph-Pad Prism® curve-fitting software.

Test [2] has as its target T1, hMC4-R. As to the kind of experiment: High and low density hMC4-R functional assay (cAMP, HEK293-T-REx-MC4-R cells). It is filed as cell-based. Particulars: for Emax: NDP-α-MSH = 100%, read-out: Intrinsic Activity (%). Here is the method: The cells were then dispensed into 96-well plates (BD 353916) in 198 μL (about 5×10^4) cells/well and incubated for 10 minutes at 37° C. The compound to be tested was diluted with DMSO to a final concentration of 1 mM. […] 120 μL of the 1 mM compound stock was pipetted in the second column on the plate. […] All assay samples were run in duplicate (i.e. each sample was in two low dox and two high dox plates, respectively). The plates were gently shaken and incubated for 15 minutes at 37° C.

Where [3] appears, read: 0.1 ng/mL Doxycycline (low density hMC4-R system).
Setting [4] is: 10 ng/mL Doxycycline (high density hMC4-R system).

The term Ki denotes the dissociation constant of the complex between target and ligand, obtained from inhibition or displacement. What is called EC50 is the concentration at which the effect is half-maximal. The low end stands for an effect from little substance, the high end for a need for much substance.

Where two headings read alike, the source gives them in different places. Positions of bridges follow the written chain, without caps; N, C: chain ends. Non-standard residues stand in square brackets, D forms with d. Residues, ends and D or L forms follow the SMILES beside them. dPhe(4-CN) = N#Cc1ccc(C[C@@H](N)C(=O)O)cc1

Consider `CC(=O)N[C@@H](CCCNC(=N)N)C(=O)N[C@H]1CCC(=O)NCCC[C@@H](C(N)=O)NC(=O)[C@H](Cc2c[nH]c3ccccc23)NC(=O)[C@H](CCCNC(=N)N)NC(=O)[C@@H](Cc2ccccc2[N+](=O)[O-])NC(=O)[C@H](CCN)NC1=O` [Example 22, Ac-Arg-cyclo(Glu-Dab-D-Phe(2-NO2)-Arg-Trp-Orn)-NH2], for which the Ki on hMC4-R [1] came out at 11 nM. Besides, on hMC4-R [2] (setting [3]), the EC50 is 3 nM and the Emax amounted to 78%. Moreover, at hMC4-R [2] (setting [4]), the midpoint of the response, the EC50, lay at 0.2 nM and the Emax was determined as 93%.
Turning to `COc1cccc(C[C@H]2NC(=O)[C@H](CCN)NC(=O)[C@@H](NC(=O)[C@H](CCCNC(=N)N)NC(C)=O)CCC(=O)NCCC[C@@H](C(N)=O)NC(=O)[C@H](Cc3c[nH]c4ccccc34)NC(=O)[C@H](CCCNC(=N)N)NC2=O)c1` [Example 87, Ac-Arg-cyclo(Glu-Dab-D-Phe(3-OMe)-Arg-Trp-Orn)-NH2], the Ki on hMC4-R [1] was 3 nM. On hMC4-R [2] (setting [3]), the EC50 amounted to 1 nM and the Emax was 64%. In addition, at hMC4-R [2] (setting [4]), it took 0.065 nM to reach a half-maximal effect (EC50) and the Emax was determined as 100%.
On to `CC(=O)N[C@@H](CCCNC(=N)N)C(=O)N[C@H]1CCC(=O)NCCC[C@@H](C(N)=O)NC(=O)[C@H](Cc2c[nH]c3ccccc23)NC(=O)[C@H](CCCNC(=N)N)NC(=O)[C@@H](Cc2cccc(Cl)c2)NC(=O)[C@H](CCN)NC1=O` [Example 2, Ac-Arg-cyclo(Glu-Dab-D-Phe(3-Cl)-Arg-Trp-Orn)-NH2], for which the inhibition constant (Ki) at hMC4-R [1] is 0.75 nM. On hMC4-R [2] (setting [3]), it took 0.56 nM to reach a half-maximal effect (EC50) and the Emax amounted to 36%. Besides, on hMC4-R [2] (setting [4]), the EC50 is 0.095 nM and the Emax was 99%.
On to `CC(=O)N[C@@H](CCCNC(=N)N)C(=O)N[C@H]1CCC(=O)NCCC[C@@H](C(N)=O)NC(=O)[C@H](Cc2c[nH]c3ccccc23)NC(=O)[C@H](CCCNC(=N)N)NC(=O)[C@@H](Cc2ccc(N)cc2)NC(=O)[C@H](CCN)NC1=O` [Example 28, Ac-Arg-cyclo(Glu-Dab-D-Phe(4-NH2)-Arg-Trp-Orn)-NH2], for which, on hMC4-R [1], the Ki came out at 48 nM. On hMC4-R [2] (setting [3]), the half-maximal effective concentration (EC50) is 29 nM and the Emax was 35%. For the same molecule, on hMC4-R [2] (setting [4]), a half-maximal effect (EC50) was put at 0.6 nM and the Emax was determined as 94%.
On to `CC(=O)N[C@@H](CCCNC(=N)N)C(=O)N[C@H]1CCC(=O)NCCC[C@@H](C(N)=O)NC(=O)[C@H](Cc2c[nH]c3ccccc23)NC(=O)[C@H](CCCNC(=N)N)NC(=O)[C@@H](Cc2ccc([N+](=O)[O-])cc2)NC(=O)[C@H](CCN)NC1=O` [Example 24, Ac-Arg-cyclo(Glu-Dab-D-Phe(4-NO2)-Arg-Trp-Orn)-NH2], for which the inhibition constant (Ki) on hMC4-R [1] worked out at 0.45 nM. For the same molecule, on hMC4-R [2] (setting [3]), the 50% effective concentration (EC50) was 0.7 nM and the Emax came out at 15%. At hMC4-R [2] (setting [4]), the 50% effective concentration (EC50) is 0.45 nM and the Emax was 99%.
As to `CC(=O)N[C@@H](CCCNC(=N)N)C(=O)N[C@H]1CC(=O)NCCCC[C@@H](C(N)=O)NC(=O)[C@H](Cc2c[nH]c3ccccc23)NC(=O)[C@H](CCCNC(=N)N)NC(=O)[C@@H](Cc2ccc(C#N)cc2)NC(=O)[C@H](CC(N)=O)NC1=O` [Example 89, Ac-Arg-cyclo(Asp-Asn-D-Phe(4-CN)-Arg-Trp-Lys)-NH2] (Ac-RDN[dPhe(4-CN)]RWK-NH2; lactam 2-7), at hMC4-R [1], the Ki worked out at 48 nM. Moreover, the Emax at hMC4-R [2] (setting [3]) turned out to be 6%; on hMC4-R [2] (setting [4]), 87%.
Take `CC(=O)N[C@@H](CCCNC(=N)N)C(=O)N[C@H]1CCC(=O)NCCC[C@@H](C(N)=O)NC(=O)[C@H](Cc2c[nH]c3ccccc23)NC(=O)[C@H](CCCNC(=N)N)NC(=O)[C@@H](Cc2ccc(O)cc2)NC(=O)[C@H](CCN)NC1=O` [Example 8, Ac-Arg-cyclo(Glu-Dab-D-Tyr-Arg-Trp-Orn)-NH2]: the inhibition constant Ki on hMC4-R [1] was 75 nM. The EC50 at hMC4-R [2] (setting [3]) was determined as 48 nM; at hMC4-R [2] (setting [4]) it was 0.55 nM. In addition, the Emax on hMC4-R [2] (setting [3]) came out at 71%; on hMC4-R [2] (setting [4]), 87%.
In the same order, the values of `CC(=O)N[C@H](CCCNC(=N)N)C(=O)N[C@H]1CCCNC(=O)CC[C@@H](C(N)=O)NC(=O)[C@H](Cc2c[nH]c3ccccc23)NC(=O)[C@H](CCCNC(=N)N)NC(=O)[C@@H](Cc2ccc(F)c(F)c2)NC(=O)[C@H](Cc2c[nH]cn2)NC1=O` [Example 54, Ac-D-Arg-cyclo(Orn-His-D-Phe(3,4-diF)-Arg-Trp-Glu)-NH2] are 0.25 nM, 0.075 nM, 0.075 nM, 56% and 92%.
With `CC(=O)N[C@@H](CCCNC(=N)N)C(=O)N[C@H]1CCC(=O)NCCC[C@@H](C(N)=O)NC(=O)[C@H](Cc2c[nH]c3ccccc23)NC(=O)[C@H](CCCNC(=N)N)NC(=O)[C@@H](Cc2ccccc2C(F)(F)F)NC(=O)[C@H](CC(N)=O)NC1=O` [Example 116, Ac-Arg-cyclo(Glu-Asn-D-Phe(2-CF3)-Arg-Trp-Orn)-NH2], at hMC4-R [1], the Ki came out at 7 nM. The Emax on hMC4-R [2] (setting [3]) was determined as 77%. Moreover, on hMC4-R [2] (setting [4]), the concentration for a half-maximal effect (EC50) is 0.095 nM and the Emax turned out to be 104%.
With `CC(=O)N[C@@H](CCCNC(=N)N)C(=O)N[C@H]1CC(=O)NCCCC[C@@H](C(N)=O)NC(=O)[C@H](Cc2c[nH]c3ccccc23)NC(=O)[C@H](CCCNC(=N)N)NC(=O)[C@@H](Cc2ccc(C#N)cc2)NC(=O)[C@H](CCC(N)=O)NC1=O` [Example 90, Ac-Arg-cyclo(Asp-Gln-D-Phe(4-CN)-Arg-Trp-Lys)-NH2], the Ki on hMC4-R [1] is 5 nM. At hMC4-R [2] (setting [3]), this molecule showed a 50% effective concentration (EC50) of 4 nM. Further, the Emax amounted to 31% on hMC4-R [2] (setting [3]) and 96% at hMC4-R [2] (setting [4]).
As to `CC(=O)N[C@@H](CCCNC(=N)N)C(=O)N[C@H]1CCC(=O)NCCC[C@@H](C(N)=O)NC(=O)[C@H](Cc2c[nH]c3ccccc23)NC(=O)[C@H](CCCNC(=N)N)NC(=O)[C@@H](Cc2ccc(C#N)cc2)NC(=O)[C@H](C(C)C)NC1=O` [Example 42, Ac-Arg-cyclo(Glu-Val-D-Phe(4-CN)-Arg-Trp-Orn)-NH2], the Ki on hMC4-R [1] was 6 nM. Moreover, the Emax at hMC4-R [2] (setting [3]) stood at 9%. Further, on hMC4-R [2] (setting [4]), the EC50 came to 0.5 nM and the Emax was found to be 84%.
Regarding `CC(=O)N[C@@H](CCCNC(=N)N)C(=O)N[C@H]1CCCNC(=O)CC[C@@H](C(N)=O)NC(=O)[C@H](Cc2c[nH]c3ccccc23)NC(=O)[C@H](CCCNC(=N)N)NC(=O)[C@@H](Cc2ccccc2Cl)NC(=O)[C@H](CCC(N)=O)NC1=O` [Example 112, Ac-Arg-cyclo(Orn-Gln-D-Phe(2-Cl)-Arg-Trp-Glu)-NH2], the Ki at hMC4-R [1] was 4 nM. Further, the Emax on hMC4-R [2] (setting [3]) stood at 83%. On hMC4-R [2] (setting [4]), the response was half-maximal at 0.07 nM (EC50) and the Emax was 101%.
With `CC(=O)N[C@@H](CCCNC(=N)N)C(=O)N[C@H]1CCC(=O)NCCC[C@@H](C(N)=O)NC(=O)[C@H](Cc2c[nH]c3ccccc23)NC(=O)[C@H](CCCNC(=N)N)NC(=O)[C@@H](Cc2ccc(F)cc2)NC(=O)[C@H](CCC(N)=O)NC1=O` [Example 92, Ac-Arg-cyclo(Glu-Gln-D-Phe(4-F)-Arg-Trp-Orn)-NH2], the Ki at hMC4-R [1] was determined as 2 nM. On hMC4-R [2] (setting [3]), the response was half-maximal at 0.1 nM (EC50) and the Emax was 81%. Also, the Emax on hMC4-R [2] (setting [4]) turned out to be 89%.
`CC(=O)N[C@@H](CCCNC(=N)N)C(=O)N[C@H]1CCC(=O)NCCC[C@@H](C(N)=O)NC(=O)[C@H](Cc2c[nH]c3ccccc23)NC(=O)[C@H](CCCNC(=N)N)NC(=O)[C@@H](Cc2ccccc2F)NC(=O)[C@H](CCN)NC1=O` [Example 9, Ac-Arg-cyclo(Glu-Dab-D-Phe(2-F)-Arg-Trp-Orn)-NH2]: on hMC4-R [1], the inhibition constant Ki amounted to 0.7 nM. At hMC4-R [2] (setting [3]), the response was half-maximal at 0.09 nM (EC50) and the Emax stood at 91%. In addition, at hMC4-R [2] (setting [4]), the EC50 amounted to 0.035 nM and the Emax was 89%.
In the same order, the values of `CC(=O)N[C@@H](CCCNC(=N)N)C(=O)N[C@H]1CCC(=O)NCCC[C@@H](C(N)=O)NC(=O)[C@H](Cc2c[nH]c3ccccc23)NC(=O)[C@H](CCCNC(=N)N)NC(=O)[C@@H](Cc2ccc(F)c(F)c2)NC(=O)[C@H](CCN)NC1=O` [Example 26, Ac-Arg-cyclo(Glu-Dab-D-Phe(3,4-diF)-Arg-Trp-Orn)-NH2] are 0.3 nM, 0.125 nM, 74%, 0.12 nM and 90%.
In the case of `CC(=O)N[C@@H](CCCNC(=N)N)C(=O)N[C@H]1CC(=O)NCCCC[C@@H](C(N)=O)NC(=O)[C@H](Cc2c[nH]c3ccccc23)NC(=O)[C@H](CCCNC(=N)N)NC(=O)[C@@H](Cc2ccc(F)cc2)NC(=O)[C@@H]2CCCN2C1=O` [Example 103, Ac-Arg-cyclo(Asp-Pro-D-Phe(4-F)-Arg-Trp-Lys)-NH2], the inhibitory constant (Ki) at hMC4-R [1] was determined as 4 nM. At hMC4-R [2] (setting [3]), the response was half-maximal at 1 nM (EC50) and the Emax was 32%. For the same molecule, at hMC4-R [2] (setting [4]), a half-maximal effect (EC50) was put at 0.13 nM and the Emax is 100%.
